In US10988465B2, “CXCR4 inhibitors and uses thereof” (X4 Pharmaceuticals, Inc., priority 2016, dated 2021):
Where two headings read alike, the source gives them in different places.

Assay: MTD, pharmacokinetics and brain penetration after PO administration
Type: in vivo, male C57BL/6 mice
Details: male; for half-life: MTD mouse, read-out: t½ (converted); for AUC(0-t): C57BL/6, mouse
Method: All PO dosing solutions were prepared in 50 mM citrate buffer (pH 4.0).
The blood collection was performed as follows: the animal was restrained manually at the designated time points, approximately 500 μL of blood sample was collected via cardiac puncture vein into EDTA-2K tubes. The whole blood needed to be divided into two parts; one part was placed in the tube containing EDTA-2K for plasma generation and the other was used for the hematology assay, respectively. The blood samples for plasma generation were maintained in wet ice first and centrifuged to obtain plasma (2000 g, 4° C., 5 min) within 15 minutes post sampling. The brain collection was performed as follows: a mid-line incision was made in the animal's scalp and the skin was retracted. Using small bone cutters and rongeurs, the skull overlying the brain was removed. The brain was removed using a spatula and rinsed with cold saline. The brain was placed in screw-top tubes, and then stored at −70° C. until analysis. The CSF collection was performed as follows: a mid line incision was made on the neck. The muscle under the skin was cut to expose the cisterna magna. The cisterna magna was penetrated with the sharp end of one capillary (Burn one end of capillary to make it sharp). The CSF was sucked spontaneously into the capillary.
Plasma sample preparation: An aliquot of 30 μL sample was added with 100 μL MeCN containing 100 ng/mL IS (Dexamethasone). The mixture was vortexed for 10 min and centrifuged at 5800 rpm for 10 min. An aliquot of 40 μL supernatant was added to 40 μL H2O and the mixture was vortexed for 5 min. An aliquot of 2 μL supernatant was injected for LC-MS/MS analysis.
An aliquot of 30 μL brain homogenate (brain:PBS=1:3, w/v) sample was added to 100 μL MeCN containing 100 ng/mL IS (Dexamethasone). The mixture was vortexed for 10 min and centrifuged at 5800 rpm for 10 min. An aliquot of 40 μL supernatant was added to 40 μL H2O and the mixture was vortexed for 5 min. An aliquot of 2 μL supernatant was injected for LC-MS/MS analysis.
An aliquot of 3 μL sample was added to a mixture of 6 μL CSF, 9 μL MeOH/H2O (1/1), 40 μL MeCN containing 200 ng/mL IS (Dexamethasone), and 116 μL H2O. The mixture was vortexed for 5 min. An aliquot of 4 μL was injected for LC-MS/MS analysis.
The sample analysis was performed on UPLC-MS/MS-02 (Triple Quad™ 4000) under the following conditions: positive ion, ESI, MRM detection using dexamethasone as internal standard. HPLC conditions: mobile phase A: H2O-0.1% formic acid, mobile phase B: MeCN-0.1% formic acid on: ACQUITY UPLC HSS T3 (2.1×50 mm, 1.8 μm) at 60° C.

**Q.** For `Cc1cccnc1[C@@H]1CCC[C@H](c2nc3cccc(N4CCN(C)CC4)c3[nH]2)N1C` (racemic) [I-3, 2-((2R,6S)-1-methyl-6-(3-methylpyridin-2-yl)piperidin-2-yl)-7-(4-methylpiperazin-1-yl)-1H-benzo[d]imidazole], which half-life (C57BL/6, in vivo, single administration, D 1-50 mg/kg) is on record?
**A.** The half-life was 3.3 h.

**Q.** What about the AUC(0-t) (brain, multiple administration, D 5-300 mg/kg, read-out: AUClast (b)) of the same molecule?
**A.** Its AUC(0-t) is 384000 ng·h/mL.

**Q.** What about the AUC(0-t) (brain, single administration, D 1-50 mg/kg, read-out: AUClast (b)) of the same molecule?
**A.** Its AUC(0-t) is 15500 ng·h/mL.

**Q.** And the AUC(0-t) (plasma, multiple administration, D 5-300 mg/kg, read-out: AUClast (p))?
**A.** The AUC(0-t) was 142000 ng·h/mL.

**Q.** And the AUC(0-t) (plasma, single administration, D 1-50 mg/kg, read-out: AUClast (p))?
**A.** The AUC(0-t) was 7100 ng·h/mL.

**Q.** And the half-life (C57BL/6, plasma, multiple administration, D 5-300 mg/kg)?
**A.** The half-life was 6.1 h.
